Source: US4320148A, “2-Aminotetralin compounds, pharmaceutical compositions and method of producing central alpha1 agonist activity” (SmithKline Corporation, priority 1980, dated 1982)

System: postjunctional alpha1 receptor (isolated rabbit ear artery segment)
Experiment: postjunctional alpha1 agonist activity (EC50), isolated segment of rabbit ear artery
Assay type: cell-based
Conditions: isolated rabbit ear artery segment superfused with oxygenated Krebs solution; maximum response of the artery determined with norepinephrine; read-out: EC50 (dose required to produce 50% of the maximum response)
Method: A quantitation of postjunctional alpha1 agonist activity (EC50) is determined for compounds showing activity in the above test. This is accomplished by employing an isolated segment of rabbit ear artery. The segment is mounted in a chamber superfused with oxygenated Krebs solution. The segment is suspended between two tungsten wires, one attached to the chamber, the other to a force-displacement transducer so that smooth muscle tension can be measured directly. Before administration of the test drug, norepinephrine is administered in increasing concentration (10^-8 M to 3×10^-6 M) to determine maximum response of the artery. The dose required to produce 50% of the maximum response is the EC50.

Going from COc1ccc(OC)c2c1CCC(N)C2 (stereo not shown) [SK&F 87,696] to COc1ccc(SC)c2c1CC(N)CC2 (stereo not shown) [SK&F 89,748, 1,2,3,4-tetrahydro-8-methoxy-5-(methylthio)-2-naphthalenamine], the EC50 falls from 0.11 µM to 0.0093 µM (12-fold). The second is the more potent here.

Compared with COc1ccc(OC)c2c1CCC(N(C)C)C2 (stereo not shown) [SK&F 88,444], COc1ccc(SC)c2c1CC(N(C)C)CC2 (stereo not shown) [SK&F 89,900, 1,2,3,4-tetrahydro-8-methoxy-N,N-dimethyl-5-(methylthio)-2-naphthalenamine] is 7.7-fold lower in EC50: 0.1 µM for the first, 0.013 µM for the second.
